Publication PMC5048296, “Sex pheromone recognition and characterization of three pheromone-binding proteins in the legume pod borer, Maruca vitrata Fabricius (Lepidoptera: Crambidae)” (Scientific Reports, 2016)
In brackets after ≈: the same amount, converted by molar mass. Like-named read-outs stand apart in the source and are kept apart here.

Tests used:
[1] = target: MvitPBP1 (Maruca vitrata, UniProt A0A0K0K7G1); test: Fluorescence competitive binding assay with 1-NPN probe, recombinant MvitPBP1
Chain of MvitPBP1 (A0A0K0K7G1 entry or part of it): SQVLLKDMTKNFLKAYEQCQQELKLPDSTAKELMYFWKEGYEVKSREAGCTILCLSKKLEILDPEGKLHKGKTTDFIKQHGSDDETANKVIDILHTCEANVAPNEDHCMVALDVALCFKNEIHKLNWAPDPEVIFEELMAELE
Method: (§1) Fluorescence binding activity was determined according to the method of Sun et al.[33]. Emission fluorescence spectra were recorded on a Hitachi F-4500 at 25 °C in a right angle configuration, with a 1 cm light path quartz cuvette and 5 nm slits for both excitation and emission. The protein was dissolved in 20 mM Tris-HCl buffer (pH 7.4) and ligands were added as 1 mM methanol solutions. To measure the affinity of the fluorescent ligand 1-NPN to recombinant target proteins, a 2 μM protein solution in 20 mM Tris-HCl (pH 7.4) was titrated with aliquots of […] ligand in methanol to final concentrations of 2–16 μM. After each PBP or ligand was added into the reaction buffer, the mixture solution was incubated for 2 min at room temperature. The probe was excited at 337 nm and emission spectra were recorded between 380 and 450 nm. The affinities of the other ligands were measured in competitive binding assays. A solution of the protein and 1-NPN at a concentration of 2 μM was titrated with 1 mM methanol solutions of each competitor over concentration ranges of 2–24 μM, depending on the ligand (the solubilities are (EPA estimates): E10E12-16:Ald, 0.5 uM; E10-16:Ald, 0.3 uM; E10E12-16:OH, 0.17 uM; and E10-16:OH, 0.97 uM in ChemSpider). The dissociation constant for 1-NPN and the stoichiometry of binding were obtained by processing the data using Prism software. Dissociation constants of the competitors were calculated from the corresponding IC50 values (concentrations of ligands halving the initial fluorescence value of 1-NPN), using the equation: Ki = [IC50]/1 + [1-NPN]/K1-NPN, where [1-NPN] is the free concentration of 1-NPN and K1-NPN is the dissociation constant of the coplex protein/1-NPN.

[2] = target: MvitPBP2 (Maruca vitrata, UniProt A0A1D6YJA8); test: Fluorescence competitive binding assay with 1-NPN probe, recombinant MvitPBP2
Chain of MvitPBP2 (A0A1D6YJA8 entry or part of it): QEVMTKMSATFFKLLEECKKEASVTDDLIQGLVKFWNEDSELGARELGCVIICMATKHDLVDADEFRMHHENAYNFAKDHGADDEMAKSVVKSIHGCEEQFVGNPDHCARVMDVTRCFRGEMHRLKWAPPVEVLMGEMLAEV
Method: as §1

[3] = tested on: MvitPBP3 (Maruca vitrata); test: Fluorescence competitive binding assay with 1-NPN probe, recombinant MvitPBP3
Chain of MvitPBP3 (Maruca vitrata) (A0A1D6YJA8 entry or part of it): as above
Method: as §1, with “A solution of the protein and 1-NPN at a concentration of 2 μM was titrated with 1 mM methanol solutions of each competitor over concentration ranges of 2–24 μM, depending on the ligand (the solubilities are (EPA estimates): E10E12-16:Ald, 0.5 uM; E10-16:Ald, 0.3 uM; E10E12-16:OH, 0.17 uM; and E10-16:OH, 0.97 uM in ChemSpider). The dissociation constant for 1-NPN and the stoichiometry of binding were obtained by processing the data using Prism software.” left out

[4] = tested on: MvitGOBP2; design: method as in PMID 26517714; conditions: read-out: Ligand concentration at which fluorescence intensity of the MvitGOBP2/1-NPN complex decreased to approximately 50%; cited from earlier work
[5] = design: method as in ChemSpider; conditions: ref ChemSpider; cited from earlier work
[6] = MvitPBP1, 2 μM protein and 1-NPN, 20 mM Tris-HCl pH 7.4, read-out: IC50 (ligand concentration displacing 50% of the fluorescence intensity of the MvitPBPs/1-NPN complex)
[7] = MvitPBP1, calculated from IC50, read-out: Ki (dissociation constant)
[8] = MvitPBP2; calculated from IC50; read-out: Ki (dissociation constant)
[9] = MvitPBP2; 2 μM protein and 1-NPN, 20 mM Tris-HCl pH 7.4; read-out: IC50 (ligand concentration displacing 50% of the fluorescence intensity of the MvitPBPs/1-NPN complex)

Row | IC50 [1, 6] | Ki [1, 7] | Ki [2, 8] | IC50 [2, 9] | Compound | Solubility (EPA estimates) [5] | also measured
1 | – | – | – | – | CC(=O)c1ccc(C(C)=O)cc1 [1,4-diacetyl benzene] | – | IC50 [1]: 19.6 µM; Ki [1]: 17.2 µM
2 | – | – | – | – | c1ccc(Nc2cccc3ccccc23)cc1 [1-NPN, N-phenyl-1-naphthylamine, reference compound] | – | Kd [1]: 13 µM; Kd ([2]; read-out: Dissociation constant of the MvitPBP2/1-NPN complex; calculated by Scatchard plots): 11.9 µM
3 | 22.5 µM | 19.7 µM | – | – | Oc1cccc2[nH]ccc12 [1H-indol-4-ol] | – | –
4 | – | – | – | – | CCCCCCCCOC(=O)CCC [Butanoic acid octyl ester] | – | IC50 [4]: 8.5 µM
5 | 7.36 µM | 6.44 µM | 4.78 µM | 5.53 µM | CCCCC/C=C/CCCCCCCCC=O [E10-16: Ald, (E)-10-Hexadecenal] | 0.3 µM (≈ 0.0715 µg/mL) | –
6 | 7.64 µM | 6.69 µM | 5.9 µM | 6.82 µM | CCCCC/C=C/CCCCCCCCCO [E10-16: OH, (E)-10-Hexadecen-1-ol] | 0.97 µM (≈ 0.233 µg/mL) | –
7 | 5.68 µM | 4.97 µM | 5.09 µM | 5.89 µM | CCC/C=C/C=C/CCCCCCCCC=O [E10E12-16: Ald, (E,E)-10,12-Hexadecadienal] | 0.5 µM (≈ 0.118 µg/mL) | –

Row | Compound | IC50 [1, 6] | Ki [1, 7] | Ki [2, 8] | IC50 [2, 9] | Solubility (EPA estimates) [5] | also measured
8 | CC(C=O)Cc1ccccc1 (stereo not shown) [2-methyl-3-phenylpropanal] | – | – | 18.1 µM | – | – | IC50 ([2]; read-out: IC50 (ligand concentration displacing 50% of the fluorescence intensity of the MvitPBPs/1-NPN complex); MvitPBP2; 2 μM protein and 1-NPN, 20 mM Tris-HCl pH 7.4): 21 µM; Ligand binding capacity (in words) [3]: bonded strongly; IC50 [4]: 3.81 µM
9 | CCC/C=C/C=C/CCCCCCCCCO [E10E12-16: OH, (E,E)-10,12-Hexadecadien-1-ol] | 8.84 µM | 7.73 µM | 5.11 µM | 5.91 µM | 0.17 µM (≈ 0.0405 µg/mL) | –
